Results: the NIST ThermoML archive (doi:10.1021/je3012452)
± gives the expanded uncertainty stated by the source.

Experiments:
[1] = DTA
[2] = Molar enthalpy of transition or fusion; settings: DSC

SMILES	Normal melting temperature ([1]; Crystal 1) [°C]	Triple point temperature ([1]; Crystal 2) [K]	Molar enthalpy of transition or fusion ([2]; Crystal 1) [kcal/mol]	Molar enthalpy of transition or fusion ([2]; Crystal 2) [kcal/mol]	Normal melting temperature ([1]; Crystal) [°C]	Molar enthalpy of transition or fusion ([2]; Crystal) [kcal/mol]	Triple point temperature ([1]; Crystal 3) [K]	Molar enthalpy of transition or fusion ([2]; Crystal 3) [kcal/mol]
CCCC(CCC)C(N)=O [2-propylpentanamide]	125.1 ± 0.5	360.6 ± 0.9	5.38 ± 0.311	0.418 ± 0.105	–	–	–	–
CC(C)C(N)=O [2-methylpropanamide]	–	–	–	–	128.5 ± 0.9	4.76 ± 0.12	–	–
CCCCCCC(N)=O [heptanamide]	95.5 ± 1.1	356.1 ± 0.5	3.87 ± 0.12	0.813 ± 0.0478	–	–	319 ± 1.6	1.79 ± 0.143
CCCCCC(N)=O [hexanamide]	99.2 ± 2.8	306.1 ± 0.5	4.02 ± 0.167	1.22 ± 0.0717	–	–	–	–
